From ChEMBL document CHEMBL1275330, “Rational design, synthesis, and evaluation of new selective inhibitors of microbial class II (zinc dependent) fructose bis-phosphate aldolases” (J Med Chem, 2010)
Several values for one entry are separate records, joined by “and”; a condition that tells them apart may be missing. Identical values can stand only once.

What was measured:
[1] = target: T1, Fructose-bisphosphate aldolase (Candida albicans (strain SC5314 / ATCC MYA-2876) (Yeast), UniProt Q9URB4); experiment: Inhibition of Candida albicans zinc dependent class 2 Fba
T1 sequence (Q9URB4 whole entry): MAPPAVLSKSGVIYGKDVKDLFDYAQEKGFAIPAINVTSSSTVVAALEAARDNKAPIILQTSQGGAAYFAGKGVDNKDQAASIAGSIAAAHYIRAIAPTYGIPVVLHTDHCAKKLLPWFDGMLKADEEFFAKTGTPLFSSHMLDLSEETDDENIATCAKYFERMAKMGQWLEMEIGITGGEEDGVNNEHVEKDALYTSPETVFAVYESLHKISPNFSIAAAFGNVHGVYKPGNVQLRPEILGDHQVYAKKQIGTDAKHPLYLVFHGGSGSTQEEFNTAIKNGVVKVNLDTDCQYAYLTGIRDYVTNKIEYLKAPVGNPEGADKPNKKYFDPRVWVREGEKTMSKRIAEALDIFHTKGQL

[2] = target: T2, Fructose-bisphosphate aldolase A (Oryctolagus cuniculus, UniProt P00883)
T2 sequence (P00883 whole entry): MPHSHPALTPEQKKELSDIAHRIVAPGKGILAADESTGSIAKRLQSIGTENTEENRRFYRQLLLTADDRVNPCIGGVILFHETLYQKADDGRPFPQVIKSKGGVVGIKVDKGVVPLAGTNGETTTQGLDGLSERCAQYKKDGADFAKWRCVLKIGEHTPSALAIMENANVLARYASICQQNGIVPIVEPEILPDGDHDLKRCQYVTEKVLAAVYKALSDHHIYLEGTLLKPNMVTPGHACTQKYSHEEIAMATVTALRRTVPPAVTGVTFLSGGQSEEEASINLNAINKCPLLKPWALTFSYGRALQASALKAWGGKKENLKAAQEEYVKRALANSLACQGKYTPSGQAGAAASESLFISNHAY

[3] = target: T3, Fructose-bisphosphate aldolase class II (Yersinia pestis, UniProt A0A380PJR2)
T3 sequence (A0A380PJR2 whole entry): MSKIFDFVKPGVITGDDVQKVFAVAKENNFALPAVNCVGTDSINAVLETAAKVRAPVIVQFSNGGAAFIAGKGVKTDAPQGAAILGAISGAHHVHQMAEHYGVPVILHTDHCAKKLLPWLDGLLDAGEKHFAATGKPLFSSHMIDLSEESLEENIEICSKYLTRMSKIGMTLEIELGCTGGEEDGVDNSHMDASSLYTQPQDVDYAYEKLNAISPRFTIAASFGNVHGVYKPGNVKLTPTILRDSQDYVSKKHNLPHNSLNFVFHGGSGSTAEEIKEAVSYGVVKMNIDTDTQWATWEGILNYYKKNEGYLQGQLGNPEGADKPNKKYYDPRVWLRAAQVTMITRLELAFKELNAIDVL

[4] = target: T4, Fructose-bisphosphate aldolase (Mycobacterium tuberculosis, UniProt P9WQA3)
T4 sequence (P9WQA3 whole entry): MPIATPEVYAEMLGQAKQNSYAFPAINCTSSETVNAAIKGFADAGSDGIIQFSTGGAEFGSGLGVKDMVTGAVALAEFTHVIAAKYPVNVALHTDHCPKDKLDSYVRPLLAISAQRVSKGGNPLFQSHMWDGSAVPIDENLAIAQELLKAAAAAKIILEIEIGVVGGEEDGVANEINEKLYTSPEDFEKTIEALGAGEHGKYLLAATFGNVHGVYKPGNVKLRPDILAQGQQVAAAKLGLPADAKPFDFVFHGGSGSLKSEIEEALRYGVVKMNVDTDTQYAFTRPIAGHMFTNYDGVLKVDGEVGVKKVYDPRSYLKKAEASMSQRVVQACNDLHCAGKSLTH

[5] = target: T5, Fructose-bisphosphate aldolase (Helicobacter pylori (strain ATCC 700392 / 26695) (Campylobacterpylori), UniProt P56109)
T5 sequence (P56109 whole entry): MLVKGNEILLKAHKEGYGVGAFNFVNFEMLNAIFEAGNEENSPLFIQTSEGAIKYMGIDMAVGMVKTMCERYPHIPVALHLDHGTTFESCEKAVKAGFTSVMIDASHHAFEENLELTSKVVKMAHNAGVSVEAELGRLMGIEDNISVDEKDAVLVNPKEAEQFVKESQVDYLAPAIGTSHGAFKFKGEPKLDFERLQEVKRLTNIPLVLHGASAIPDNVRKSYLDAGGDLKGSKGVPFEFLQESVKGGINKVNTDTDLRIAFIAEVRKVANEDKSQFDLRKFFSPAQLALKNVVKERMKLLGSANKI

O=C(COP(=O)(O)O)N(O)CCCCO
Ki [1]: 300 nM and 297 nM

O=C(COP(=O)(O)O)N(O)CCCO
Ki [2]: 2.5 mM

O=C(COP(=O)(O)O)N(O)CCCCOP(=O)(O)O
IC50 [3]: 36 nM
IC50 [2]: 112 µM
IC50 [4]: 3.2 nM
IC50 [5]: 131 nM
IC50 [1]: 4.8 nM
Ki [1]: 3 nM and 3.25 nM

CCCCCC(=O)OCCCCN(O)C(=O)COP(=O)(O)O
Ki [1]: 280 nM and 276 nM

O=C(COP(=O)(O)O)[C@@H](O)[C@H](O)[C@H](O)COP(=O)(O)O
Ki [3]: 55 µM
Ki [4]: 21 µM

CCCCCCCCCCCC(=O)OCCCCN(O)C(=O)COP(=O)(O)O
Ki [2]: 0.067 mM
Ki [1]: 800 nM and 815 nM
